Data taken from US9731001B2, “Three-dimensional cavities of dendritic cell immunoreceptor (DCIR), compounds binding thereto and therapeutic applications related to inhibition of human immunodeficiency virus type-1 (HIV-1)” (priority 2011, dated 2017).

Key:
Assay type in all cases: cell-based
DCIR = molecular target: T1, DCIR (Homo sapiens, UniProt Q9UMR7); experiment: HIV-1 binding/entry assay on Raji-CD4-DCIR cells (cell-associated p24); details: 10 μM pre-treatment 10 min; NL4-3 60 min; p24 content
T1 construct: expressed in transfected cells; host or cells: Raji-CD4 (human B cell line stably expressing human CD4), retroviral transduction
T1 sequence (Q9UMR7 1-237): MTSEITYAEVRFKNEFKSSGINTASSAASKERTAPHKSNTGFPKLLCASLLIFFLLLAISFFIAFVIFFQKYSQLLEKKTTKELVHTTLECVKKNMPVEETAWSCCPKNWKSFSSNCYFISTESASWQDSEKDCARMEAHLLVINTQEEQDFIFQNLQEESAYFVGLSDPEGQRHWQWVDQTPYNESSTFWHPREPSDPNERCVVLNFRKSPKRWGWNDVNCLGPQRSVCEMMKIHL
Protocol: FIG. 4 is a bar graph showing that inhibitors decrease HIV-1 binding on DCIR. Raji-CD4-DCIR cells were treated with 10 μM of four site A inhibitors (A1, A2, A3 and A4) and three site B inhibitors (B1, B2 and B3) (or with vehicle (DMSO) only) for 10 min at 37° C. Thereafter, cells were pulsed with NL4-3 for 60 min. After three washes with PBS to remove unadsorbed virus, the abundance of cell-associated viruses was quantified by measuring p24 content. Data shown correspond to the means±SEM of three independent experiments performed with triplicate samples. The asterisk (*) denotes statistically significant data (*, P<0.05, ** P<0.01, *** P<0.001).
(§1) Where indicated, 1×10^6 parental Raji-CD4 cells (DCIR-negative), Raji-CD4-DCIR or Raji-DC-SIGN transfectants were pre-treated with the indicated amount of a chemical inhibitor for 10 min. Cells were then pulsed with NL4-3 (an equivalent of 100 ng of p24) for 60 min at 37° C. The virus-cell mixture was then washed three times with PBS to remove unbound virus and re-suspended in PBS containing 1% BSA. Binding/entry was then determined by the p24 content by ELISA as above. For the infection assay, Raji-CD4 and Raji-CD4-DCIR (1×10^6 cells) were exposed to NL4-3 viral stock (100 ng of p24) for 2 h at 37° C. After three washes with PBS to remove excess virus, cells were maintained in culture for up to 9 days. Cell-free culture supernatants were collected at the indicated time points and assayed for p24 content.

HIV-1 (NL4-3) = experiment: HIV-1 infection assay on Raji-CD4 and Raji-CD4-DCIR cells (p24 in supernatant); details: Raji-CD4 vs Raji-CD4-DCIR, NL4-3 2 h, culture 3 d
Protocol: FIG. 5 is a bar graph showing that specific inhibitors against the site A (A1, A4) and site B (B1, B2) decrease infectivity of Raji-CD4-DCIR. Raji-CD4 and Raji-CD4-DCIR were treated with the inhibitors selected following experiments described in FIG. 4, or DMSO. Cells were then exposed to NL4-3 for 2 h, rinsed and maintained in culture for 3d. Cell-free culture supernatants were collected and assayed for p24 content. Data shown correspond to the means±SEM from 3 independent experiments performed with triplicate samples. The asterisk (*) denotes statistically significant data (*, P<0.05, ** P<0.01, *** P<0.001).
as §1

DC-SIGN = molecular target: T2, DC-SIGN (Homo sapiens, UniProt Q9NNX6); experiment: HIV-1 binding to Raji-DC-SIGN cells (p24); details: NL4-3 60 min
T2 construct: expressed in transfected cells; host or cells: Raji cells stably transfected with a DC-SIGN plasmid
T2 sequence (Q9NNX6 1-404): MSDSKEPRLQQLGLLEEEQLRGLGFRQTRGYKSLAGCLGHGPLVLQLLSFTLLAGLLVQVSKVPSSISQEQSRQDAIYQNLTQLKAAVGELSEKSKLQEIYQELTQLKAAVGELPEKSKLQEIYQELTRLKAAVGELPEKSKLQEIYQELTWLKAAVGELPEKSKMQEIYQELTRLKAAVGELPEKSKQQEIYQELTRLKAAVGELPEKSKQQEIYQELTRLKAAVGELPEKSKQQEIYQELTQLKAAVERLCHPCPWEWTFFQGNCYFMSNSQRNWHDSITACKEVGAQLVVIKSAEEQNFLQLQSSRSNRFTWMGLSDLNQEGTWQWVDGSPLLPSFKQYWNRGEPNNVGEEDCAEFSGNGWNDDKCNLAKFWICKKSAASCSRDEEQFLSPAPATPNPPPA
Protocol: Raji-DC-SIGN cells were treated for 10 min at 37° C. with inhibitors A1 and A4 directed against the site A and B1 and B2 directed against the site B, or with DMSO. Afterwards, cells were pulsed with NL4-3 for 60 min, rinsed thrice with PBS were made to remove unadsorbed virus, and cell-associated viruses were quantified by measuring p24 content. Data shown correspond to the means±SEM of 3 independent experiments performed in triplicate.
as §1

HIV-1 (NL4-3/Balenv) [1] = experiment: HIV-1 binding assay on iMDDCs (p24); details: IM-MDDCs, 10 μM pre-incubation 10 min, NL4-3balenv 60 min
Protocol: (§2) FIG. 7 is bar graphs showing that selected site A and site B inhibitors decrease HIV-1 binding and infection of IM-MDDCs. Upper panel: IM-MDDCs were treated with two chemical inhibitors directed against site A (A1 and A4) and two inhibitors directed against site B (B1 and B2) (or DMSO) for 10 min at 37° C. Next, cells were pulsed with NL4-3balenv for 60 min at 37° C. and rinsed extensively before measuring p24 content. Lower panel: In some experiments, similarly treated IM-MDDCs were pulsed with NL4-3balenv for 2 h at 37° C., rinsed extensively, and maintained in complete culture medium supplemented with GM-CSF and IL-4 for up to 9 days with medium replenishment every 3 days. Cell-free culture supernatants were quantified by measuring p24 content. Data shown correspond to the means±SEM of 3 independent experiments performed in triplicate. The asterisks denotes statistically significant data (*, P<0.05; **, P<0.01; ***, P<0.001).
(§3) For assessing binding/entry, iMDDCs (3×10^5 cells in a final volume of 300 μl) were pre-treated with 10 μM of different chemical inhibitors for 10 min and exposed to NL4-3/Balenv (30 ng of p24) for 60 min at 37° C. After three washes with PBS, cells were re-suspended in PBS containing 1% BSA. The p24 content was determined by ELISA, while susceptibility of iMDDCs to HIV-1 infection was assessed by initially exposing 3×10^5 cells to NL4-3/Balenv (30 ng) at 37° C. for 2 h. After three washes with PBS, cells were maintained in complete RPMI 1640 supplemented with GM-CSF and IL-4 in 96-well plates, in a final volume of 200 μl. Every 3 days and for a 9-day period, half of the conditioned medium was collected and kept at −20° C. until assayed. Virus production was estimated as above by measuring p24 levels by ELISA.

HIV-1 (NL4-3/Balenv) [2] = experiment: HIV-1 infection assay on iMDDCs (p24 in supernatant); details: IM-MDDCs, NL4-3balenv 2 h, culture up to 9 days
Protocol: as §2, §3

## c1ccc(-c2ccc(-c3ccccn3)nn2)nc1 [Compound A4, 3,6-di-2 pyridinylpyridazine]
DCIR
  HIV-1 attachment to Raji-CD4-DCIR cells: statistically significant decrease
HIV-1 (NL4-3)
  HIV-1 production: decreased HIV-1 production only in DCIR-expressing cells
DC-SIGN
  HIV-1 binding to DC-SIGN: do not block HIV-1 attachment to DC-SIGN
HIV-1 (NL4-3/Balenv) [1]
  HIV-1 binding to DCs: decreased significantly
HIV-1 (NL4-3/Balenv) [2]
  productive infection of DCs: blocked productive infection
